The text below walks through data of patent publication US20240083910A1, “AMIDO-SUBSTITUTED PYRIDYL COMPOUNDS AND METHODS OF USE THEREOF FOR THE TREATMENT OF HERPESVIRUSES” (Merck Sharp & Dohme LLC, priority 2020, published 2024).

The test system of assay [1] is HSV-1 Strain F. The assay can be described thus: Viral qPCR assay, HSV-1. Type of assay: cell-based, Herpes Simplex Virus type 1. The conditions noted are these: Human alphaherpesvirus 1, 72 h, Vero or MRC5 cells, 0.0005-0.004 pfu/cell, growth medium, viral genome copies by qPCR, read-out: HSV1 Cell (EC50). An outline of the steps:
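HSV-1 strain F at 0.0005–0.004 pfu/cell infected Vero or MRC5 cells, which were added to a 10-point 3-fold compound dilution and cultured ~72 h at 37 °C. Viral genomes in the lysates were quantified by TaqMan qPCR against a plasmid standard curve, in some runs normalized to cellular PPIA. EC50 came from a 4-parameter fit of % effect.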

The test system of assay [2] is VZV. The assay can be described thus: Viral qPCR assay, VZV. The conditions noted are these: Human alphaherpesvirus 3, 72 h, MeWo or MRC5 cells, 0.04-0.1 pfu/cell, growth medium, viral genome copies by qPCR. Type of assay: cell-based, varicella zoster virus. In outline:
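VZV strain Street at 0.04-0.1 pfu/cell infected MeWo or MRC5 cells added to 10-point, 3-fold compound dilutions; ~72 h at 37° C. Viral genome copies by TaqMan qPCR against plasmid standard curve, sometimes normalised to PPIA, scaled between uninfected and DMSO-infected controls; EC50 from 4-parameter fit.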

The subject of assay [3] is HCMV Strain AD169. The assay can be described thus: Viral qPCR assay, HCMV. Type of assay: cell-based, Human cytomegalovirus. The following applies: Human betaherpesvirus 5, AD169, MRC5, 72 h, MRC-5 cells, 0.05-0.1 pfu/cell, growth media or 50% fetal bovine serum, viral genome copies by qPCR, read-out: CMV Cell (EC50). In outline: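 HCMV AD169 at 0.05-0.1 pfu/cell infected MRC-5 cells, added to 10-point 3-fold compound dilutions, in growth medium or medium with 50% FBS; ~72 h at 37°C. Viral genome copies by TaqMan qPCR against plasmid standard curve, normalized to DMSO and uninfected controls; EC50 from 4-parameter fit.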

Assay [4] addresses T1, Human cytomegalovirus DNA polymerase (Human cytomegalovirus, UniProt P08546).
T1 construct: made in house; host or cells: SF21 insect cells (baculovirus vector)
The experiment in a line: CMV polymerase assay (AlphaLISA). Type of assay: biochemical. The following applies: HCMV polymerase 0.2 nM; 30 min pre-incubation; 60 min at 37° C.; read-out: CMV (IC50). In outline: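 Baculovirus-expressed polymerase (HCMV 0.2 nM, VZV 0.4 nM) preincubated 30 min with compound, then reacted 60 min at 37 °C with 1.6 nM DIG-primer/59-mer template and low-nM dNTPs including 0.8 nM biotin-dUTP. Incorporation detected by AlphaLISA; IC50 from a 4-parameter fit normalized to DMSO and pre-quenched controls.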

Assay [5] concerns the target T2, varicella zoster virus DNA polymerase (Varicella-zoster virus, UniProt P09252).
T2 construct: made in house; host or cells: SF21 insect cells (baculovirus vector)
The experiment in a line: VZV polymerase assay (AlphaLISA). The following applies: VZV polymerase 0.4 nM; 30 min pre-incubation; 60 min at 37° C. Type of assay: biochemical. The method, then:
Human cytomegalovirus and varicella zoster virus DNA polymerases were expressed via baculovirus vector in SF21 cells and purified. Heterodimeric nucleic acid substrate used in the herpesvirus polymerase reactions was generated by annealing a 59-mer template to a 17-mer digoxigenin-labeled primer. Polymerase (HCMV final concentration of 0.2 nM; VZV final concentration of 0.4 nM) was combined with an inhibitor compound or DMSO in assay buffer (10 mM HEPES, pH 7.5, 25 mM KCl, 25 mM NaCl, 5 mM MgCl2, 5% glycerol, 0.67 mg/ml bovine serum albumin, and 1 mM tris(2-carboxyethyl)phosphine), and this mixture was pre-incubated for 30 minutes at room temperature in 384-well microtiter plates. The polymerization reaction was initiated by the addition of template/primer substrate (final concentration: 1.6 nM), and dNTPs (final concentration: 24 nM dCTP, 24 nMdGTP, 16 nM dATP, 16 nM dTTP, and 0.8 nM biotin-dUTP). After 60 min incubation at 37° C., reactions were terminated with quench buffer (25 mM HEPES pH 7.5, 100 mM NaCl, 0.25% Tween-20, 12 mM EDTA, and 1 mg/ml bovine serum albumin). Incorporation of biotinylated UTP was detected with 2.5-5 ug/ml anti-DIG AlphaLISA acceptor beads and 5-10 ug/ml streptavidin AlphaLISA donor beads (PerkinElmer). Compound effects were normalized to the window defined by the controls (DMSO only and pre-quenched wells) and were fit using a 4-parameter algorithm to report an IC50.

T2 sequence (P09252 whole entry): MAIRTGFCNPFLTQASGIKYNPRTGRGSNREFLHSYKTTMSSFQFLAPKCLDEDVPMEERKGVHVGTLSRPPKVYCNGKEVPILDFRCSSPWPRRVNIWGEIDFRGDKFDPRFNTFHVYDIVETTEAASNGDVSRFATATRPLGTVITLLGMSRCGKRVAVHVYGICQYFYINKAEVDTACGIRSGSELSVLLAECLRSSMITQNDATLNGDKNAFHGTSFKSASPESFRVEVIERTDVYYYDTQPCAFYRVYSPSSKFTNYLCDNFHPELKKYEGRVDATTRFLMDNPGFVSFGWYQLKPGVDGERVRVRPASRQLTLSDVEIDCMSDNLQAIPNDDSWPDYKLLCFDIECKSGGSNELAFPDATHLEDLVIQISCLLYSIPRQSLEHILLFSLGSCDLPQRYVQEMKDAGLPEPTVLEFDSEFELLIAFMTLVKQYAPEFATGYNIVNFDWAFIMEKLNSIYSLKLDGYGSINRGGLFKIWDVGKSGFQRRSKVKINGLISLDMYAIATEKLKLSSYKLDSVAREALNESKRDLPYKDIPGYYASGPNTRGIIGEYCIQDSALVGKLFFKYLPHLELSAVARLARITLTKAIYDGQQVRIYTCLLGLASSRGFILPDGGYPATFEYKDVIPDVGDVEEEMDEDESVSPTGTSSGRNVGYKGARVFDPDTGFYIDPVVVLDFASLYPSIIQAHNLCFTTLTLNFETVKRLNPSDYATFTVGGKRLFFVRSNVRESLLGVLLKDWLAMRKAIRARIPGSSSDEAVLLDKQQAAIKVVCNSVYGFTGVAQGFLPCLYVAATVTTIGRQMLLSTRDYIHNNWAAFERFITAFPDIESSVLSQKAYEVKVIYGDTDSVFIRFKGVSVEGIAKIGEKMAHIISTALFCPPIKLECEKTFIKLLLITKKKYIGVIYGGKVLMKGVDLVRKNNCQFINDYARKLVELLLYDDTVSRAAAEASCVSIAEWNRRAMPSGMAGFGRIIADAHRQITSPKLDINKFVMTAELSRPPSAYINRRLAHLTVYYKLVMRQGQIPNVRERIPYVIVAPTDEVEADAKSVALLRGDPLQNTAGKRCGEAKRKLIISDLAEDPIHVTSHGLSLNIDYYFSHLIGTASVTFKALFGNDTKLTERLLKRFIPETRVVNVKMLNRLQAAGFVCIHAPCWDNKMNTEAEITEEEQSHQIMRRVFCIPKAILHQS
T1 sequence (P08546 whole entry): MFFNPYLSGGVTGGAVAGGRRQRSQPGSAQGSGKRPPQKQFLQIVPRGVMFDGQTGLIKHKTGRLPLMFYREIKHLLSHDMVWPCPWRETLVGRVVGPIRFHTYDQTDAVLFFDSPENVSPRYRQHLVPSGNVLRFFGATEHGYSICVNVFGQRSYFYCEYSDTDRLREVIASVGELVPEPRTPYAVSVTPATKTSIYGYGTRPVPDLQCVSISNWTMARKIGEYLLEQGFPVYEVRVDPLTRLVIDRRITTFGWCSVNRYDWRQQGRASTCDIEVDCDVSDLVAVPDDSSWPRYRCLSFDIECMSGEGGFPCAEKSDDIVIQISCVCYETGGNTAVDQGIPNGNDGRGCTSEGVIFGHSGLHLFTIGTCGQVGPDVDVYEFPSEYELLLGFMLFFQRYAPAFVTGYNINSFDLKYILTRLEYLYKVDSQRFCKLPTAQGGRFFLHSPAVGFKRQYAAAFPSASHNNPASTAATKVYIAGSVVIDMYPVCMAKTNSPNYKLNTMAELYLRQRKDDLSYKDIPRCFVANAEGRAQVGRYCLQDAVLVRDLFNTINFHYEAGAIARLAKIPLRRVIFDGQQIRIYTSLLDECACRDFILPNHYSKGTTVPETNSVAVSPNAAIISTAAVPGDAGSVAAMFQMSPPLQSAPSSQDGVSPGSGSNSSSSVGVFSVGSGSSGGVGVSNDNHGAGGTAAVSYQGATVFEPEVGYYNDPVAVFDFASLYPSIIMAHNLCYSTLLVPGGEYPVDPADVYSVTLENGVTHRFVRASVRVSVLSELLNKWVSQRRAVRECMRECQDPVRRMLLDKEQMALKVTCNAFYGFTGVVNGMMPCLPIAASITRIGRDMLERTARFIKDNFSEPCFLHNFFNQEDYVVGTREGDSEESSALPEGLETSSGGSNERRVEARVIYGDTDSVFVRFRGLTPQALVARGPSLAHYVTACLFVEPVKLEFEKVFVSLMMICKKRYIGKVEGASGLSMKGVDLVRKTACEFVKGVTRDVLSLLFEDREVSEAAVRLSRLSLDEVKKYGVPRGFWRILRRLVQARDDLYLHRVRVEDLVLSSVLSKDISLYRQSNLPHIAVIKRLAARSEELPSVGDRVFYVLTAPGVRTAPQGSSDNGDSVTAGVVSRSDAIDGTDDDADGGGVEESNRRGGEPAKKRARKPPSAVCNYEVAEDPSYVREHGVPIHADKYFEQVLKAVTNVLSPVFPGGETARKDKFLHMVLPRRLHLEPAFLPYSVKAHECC

As to `COc1nc(-c2ccnnc2)c(O[C@H]2CCN3C(=O)OC[C@@H]3C2)cc1C(=O)NCc1ccc(Cl)cc1` [Compound 37], the 50% effective concentration (EC50) in assay [1] was determined as 144 nM; in assay [2], 178 nM; in assay [3] it was 180 nM. Moreover, the IC50 in assay [4] turned out to be 8.81 nM; in assay [5], 8.24 nM.
The corresponding values for `COc1nc(-c2cnc(C)o2)c(O[C@H]2CCN3C(=O)OC[C@@H]3C2)cc1C(=O)NCc1ccc(Cl)cc1` [Compound 5] are 80.1 nM, 107 nM, 71.4 nM, 4.11 nM and 0.161 nM.
The corresponding values for `COc1nc(N2CCC(C(C)(C)N)C2)c(O[C@H]2CCN3C(=O)OC[C@@H]3C2)cc1C(=O)NCc1ccc(Cl)cc1` (single isomer, unassigned) [Compound 71] are 396 nM, 468 nM, 221 nM, 22.8 nM and 3.54 nM.
Turning to `COc1nc(-c2cnn(C3CC3)c2)c(O[C@H]2CCN3C(=O)OC[C@@H]3C2)cc1C(=O)NCc1ccc(Cl)cc1` [Compound 22], the concentration for a half-maximal effect (EC50) in assay [1] stood at 93 nM; in assay [2] it was 129 nM; in assay [3] it was 170 nM. Further, the 50% inhibitory concentration (IC50) stood at 3.69 nM in assay [4] and 4.84 nM in assay [5].
The corresponding values for `COc1nc(-c2ncco2)c(O[C@H]2CCN3C(=O)OC[C@@H]3C2)cc1C(=O)NCc1ccc(Cl)cc1` [Compound 62] are 129 nM, 157 nM, 73 nM, 4.3 nM and 0.252 nM.
The corresponding values for `COc1nc(-c2nc(C)ns2)c(O[C@H]2CCN3C(=O)OC[C@@H]3C2)cc1C(=O)NCc1ccc(Cl)cc1` [Compound 61] are 49 nM, 70.8 nM, 60.1 nM, 1.44 nM and 0.0412 nM.
As to `COc1nc(-c2cnn(Cc3ccccn3)c2)c(O[C@H]2CCN3C(=O)OC[C@@H]3C2)cc1C(=O)NCc1ccc(Cl)cc1` [Compound 15], the EC50 was 233 nM in assay [1], 355 nM in assay [2] and 144 nM in assay [3]. The figures for the half-maximal inhibitory concentration (IC50) in assay [4] and in assay [5] were 12 nM and 12.9 nM, respectively.
`COc1nc(N2CC(C(C)(C)O)C2)c(O[C@H]2CCN3C(=O)OC[C@@H]3C2)cc1C(=O)NCc1ccc(Cl)cc1` [Compound 70]: the half-maximal effective concentration (EC50) was found to be 278 nM in assay [1], 409 nM in assay [2] and 194 nM in assay [3]. Further, the IC50 in assay [4] worked out at 15 nM; in assay [5], 14.5 nM.
Taken in the same sequence, the figures for `COc1nc(-c2cnco2)c(O[C@H]2CCN3C(=O)OC[C@@H]3C2)cc1C(=O)NCc1ccc(Cl)cc1` [Compound 6] were 87.5 nM, 110 nM, 77 nM, 1.05 nM and 0.0674 nM.
The corresponding values for `COc1nc(-c2cnn(C(F)F)c2)c(O[C@H]2CCN3C(=O)OC[C@@H]3C2)cc1C(=O)NCc1ccc(C#N)c(F)c1` [Compound 58] are 63.4 nM, 103 nM, 59.3 nM, 2.95 nM and 0.259 nM.
Regarding `COc1nc(-c2cnc(C3CC3)o2)c(O[C@H]2CCN3C(=O)OC[C@@H]3C2)cc1C(=O)NCc1ccc(Cl)cc1` [Compound 10], the EC50 in assay [1] was 150 nM; in assay [2], 131 nM; in assay [3], 134 nM. Besides, the concentration for half-maximal inhibition (IC50) in assay [4] came out at 11.3 nM; in assay [5], 0.508 nM.
On to `COc1nc(Br)c(O[C@H]2CCN3C(=O)OC[C@@H]3C2)cc1C(=O)NCc1ccc(Cl)cc1` [Int-3], for which the EC50 worked out at 832 nM in assay [1], 651 nM in assay [2] and 822 nM in assay [3]. Further, the figures for the 50% inhibitory concentration (IC50) in assay [4] and in assay [5] were 55.9 nM and 21.3 nM, respectively.
For the molecule `COc1nc(-c2cnc(N)c(F)c2)c(O[C@H]2CCN3C(=O)OC[C@@H]3C2)cc1C(=O)NCc1ccc(Cl)cc1` [Compound 46], the EC50 was 51.6 nM in assay [1], 121 nM in assay [2] and 165 nM in assay [3]. Also, the half-maximal inhibitory concentration (IC50) worked out at 4.69 nM in assay [4] and 1.53 nM in assay [5].
In the case of `COc1nc(-c2cnc(C(C)(C)O)s2)c(O[C@H]2CCN3C(=O)OC[C@@H]3C2)cc1C(=O)NCc1ccc(Cl)cc1` [Compound 19], the EC50 in assay [1] stood at 96.9 nM; in assay [2], 204 nM; in assay [3] it was 157 nM. Also, the half-inhibitory concentration (IC50) in assay [4] was 5.55 nM; in assay [5], 2.91 nM.
The corresponding values for `COc1nc(-c2cnn3c2CCC3)c(O[C@H]2CCN3C(=O)OC[C@@H]3C2)cc1C(=O)NCc1ccc(Cl)cc1` [Compound 24] are 195 nM, 390 nM, 200 nM, 7.58 nM and 4.03 nM.
As to `COc1nc(-c2cnn(C(F)F)c2)c(O[C@H]2CCN3C(=O)OC[C@@H]3C2)cc1C(=O)NCc1ccc(C#N)cc1` [Compound 56], the concentration giving a half-maximal response (EC50) in assay [1] amounted to 36.3 nM; in assay [2], 123 nM; in assay [3], 102 nM. Also, the IC50 in assay [4] was 2.08 nM; in assay [5] it was 6.48 nM.
Taken in the same sequence, the figures for `COc1nc(-c2cc(C)ns2)c(O[C@H]2CCN3C(=O)OC[C@@H]3C2)cc1C(=O)NCc1ccc(Cl)cc1` [Compound 7] were 72.6 nM, 129 nM, 82.6 nM, 1.32 nM and 0.223 nM.
